Active and inactive are the calls of the source. The rule behind the calls is not given here.
How the values were obtained:
Periplaneta americana [1] = assay: Activity at nAch receptor in american cockroach neurons assessed as induction of inward current at 10 uM by whole-cell patch clamp method
[2] = Chemical stability assessed as half life of hydrolysis in physiological solution at pH 7.6; type: physicochemical
Periplaneta americana [3] = assay: Insecticidal activity against american cockroach after 24 hrs; type: functional
[4] = Chemical stability assessed as half life of hydrolysis in alkaline buffer at pH 8.3; type: physicochemical
[5] = Chemical stability assessed as half life of hydrolysis in acidic buffer at pH 5.4; type: physicochemical

SMILES | Activity (Periplaneta americana [1]) | half-life [2] | MLD (Periplaneta americana [3]) | half-life [4] | half-life [5]
Cc1oc(=O)oc1CN1CCN(Cc2cnc(Cl)s2)/C1=N\[N+](=O)[O-] | Active | 10.5 h | 6.4 10^-8mol | 10.6 h | > 48 h
Cc1oc(=O)oc1CN1CCN(Cc2ccc(Cl)nc2)/C1=N\[N+](=O)[O-] | Active | 11.6 h | 6.4 10^-8mol | 15.5 h | > 48 h
